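1) Cells in 96-well plates. 2) Compound, 48 h, 5 concentrations. 3) Linear interpolation between surrounding doses. 4) Unreached endpoint = highest concentration. Abbreviation: GI50, concentration required for 50% inhibition of growth.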 The source made the active and inactive calls. No stated cut-off is given here; in the data, active = GI50 up to about 1.1 µM and inactive = higher.
Assays:
Experiment in all cases: NCI tumour cell line growth inhibition, 48 h
HCT-15 = test system: HCT-15
SK-MEL-2 = test system: SK-MEL-2
TK-10 = test system: TK-10
SNB-19 = test system: SNB-19
HCC 2998 = test system: HCC 2998
NCI-H23 = test system: NCI-H23
MOLT-4 = test system: MOLT-4
NCI-H226 = test system: NCI-H226
SN12C = test system: SN12C
HOP-62 = test system: HOP-62
SK-MEL-5 = test system: SK-MEL-5
SK-OV-3 = test system: SK-OV-3
SNB-75 = test system: SNB-75
HT-29 = test system: HT-29
UO-31 = test system: UO-31
LOX IMVI = test system: LOX IMVI
NCI-H522 = test system: NCI-H522
A498 = test system: A498

| Structure (SMILES) | GI50 (HCT-15) [µM] | GI50 (SK-MEL-2) | GI50 (TK-10) | GI50 (SNB-19) | GI50 (HCC 2998) | GI50 (NCI-H23) | GI50 (MOLT-4) | GI50 (NCI-H226) | GI50 (SN12C) | GI50 (HOP-62) | GI50 (SK-MEL-5) | GI50 (SK-OV-3) | GI50 (SNB-75) | GI50 (HT-29) | GI50 (UO-31) | GI50 (LOX IMVI) | GI50 (NCI-H522) | GI50 (A498) |
| --- | --- | --- | --- | --- | --- | --- | --- | --- | --- | --- | --- | --- | --- | --- | --- | --- | --- | --- |
| COc1cc(C(C)c2cc3c(cc2OCCCCOc2cc4c(cc2C(C)c2cc(OC)c(OC)c(OC)c2)OCO4)OCO3)cc(OC)c1OC (configuration not stated) | 34.8 | 42.3 µM (inactive) | > 100 µM (inactive) | > 100 µM (inactive) | 29.5 µM (inactive) | 40.4 µM (inactive) | 41.4 µM (inactive) | 31.5 µM (inactive) | 29.6 µM (inactive) | 37.4 µM (inactive) | 29.1 µM (inactive) | 34.4 µM (inactive) | 24.8 µM (inactive) | 68.9 µM (inactive) | 46.3 µM (inactive) | > 100 µM (inactive) |  |  |
| CCOC(=O)c1cnc2oc(-c3ccc(OC)cc3)nn2c1=O | > 100 | > 100 µM (inactive) | > 100 µM (inactive) | > 100 µM (inactive) | > 100 µM (inactive) | > 100 µM (inactive) | > 100 µM (inactive) | > 100 µM (inactive) | > 100 µM (inactive) |  | > 100 µM (inactive) | > 100 µM (inactive) | 45.3 µM (inactive) | > 100 µM (inactive) | > 100 µM (inactive) |  | 79.1 µM (inactive) |  |
| CC1=NN(C(=O)Cc2ccccc2)C(=O)/C1=C\C=C\c1ccccc1 | > 100 | > 100 µM (inactive) | > 100 µM (inactive) | > 100 µM (inactive) | > 100 µM (inactive) | > 100 µM (inactive) | > 100 µM (inactive) | > 100 µM (inactive) | > 100 µM (inactive) | > 100 µM (inactive) | > 100 µM (inactive) |  | > 100 µM (inactive) | > 100 µM (inactive) | > 100 µM (inactive) | > 100 µM (inactive) | > 100 µM (inactive) |  |
| COC12CC(O)=C(C(C)=O)C(=O)C1(C)c1c(OC(C)=O)c(C)c(O)c(C(C)=O)c1O2 (configuration not stated) | 13.6 | 19 µM (inactive) | 25.4 µM (inactive) | 4.98 µM (inactive) | 18.3 µM (inactive) | 4.86 µM (inactive) | 18.6 µM (inactive) | 13.8 µM (inactive) | 11.6 µM (inactive) | 22.8 µM (inactive) |  |  | 16 µM (inactive) | 20.5 µM (inactive) | 4.35 µM (inactive) | 10.2 µM (inactive) |  | 17.3 µM (inactive) |
| COc1ccc(S(=O)(=O)N/N=C/c2cc(I)cc([N+](=O)[O-])c2O)cc1OC | 36.6 | 22.5 µM (inactive) | 62.1 µM (inactive) | 26.3 µM (inactive) | 50.6 µM (inactive) |  | 24.8 µM (inactive) | 22.7 µM (inactive) | 32.8 µM (inactive) |  | 19.8 µM (inactive) | 32.4 µM (inactive) |  | 46.3 µM (inactive) | 22 µM (inactive) | 43.3 µM (inactive) |  | 54.2 µM (inactive) |
| COC(=O)C1=C(C)N(NC(N)=O)C2(N)N(NC(N)=O)C(C)=C(C(=O)OC)C12C#N (configuration not stated) | > 100 | > 100 µM (inactive) | > 100 µM (inactive) | > 100 µM (inactive) | > 100 µM (inactive) | > 100 µM (inactive) | > 100 µM (inactive) | > 100 µM (inactive) | > 100 µM (inactive) | > 100 µM (inactive) |  | > 100 µM (inactive) |  | > 100 µM (inactive) | > 100 µM (inactive) | > 100 µM (inactive) | > 100 µM (inactive) | > 100 µM (inactive) |

— ChEMBL document CHEMBL1201862, “PubChem BioAssay data set” (2004)
